The nature of the series: Test for the content of related substances (stability in solution, HPLC). The series is classed as physicochemical. The settings on record: dissolved in a solution. The procedure:
Experimental Example 1—Test for the Content of Related Substances […] Thereafter, the contents of related substances were measured by high-performance liquid chromatography (HPLC). The same procedure was repeated except that crystalline efinaconazole was used instead of the solid dispersion.

Results on 1 compound are retold here after patent US12023408B2, “Amorphous efinaconazole solid dispersion” (DAEBONG LS CO., LTD., priority 2019, dated 2024).

Take `C=C1CCN([C@H](C)[C@](O)(Cn2cncn2)c2ccc(F)cc2F)CC1` [Efinaconazole, (2R,3R)-2-(2,4-difluorophenyl)-3-(4-methylenepiperidin-1-yl)-1-(1H-1,2,4-triazol-1-yl)butan-2-ol]: the “content of related substances” value runs as follows: (oven at 65° C., 0 (initial)) 0; (oven at 65° C., 1 week) 0.45%; (oven at 65° C., 2 weeks) 0.54%; (oven at 65° C., 4 weeks) 1.53%; (room temperature, 0 (initial)) 0; (room temperature, 1 week) 0.27%. In addition, the “content of related substances” value runs as follows: (room temperature, 2 weeks) 0.39%; (room temperature, 4 weeks) 0.40%.
